Data set [1] can be described thus: Metabolic stability in human liver microsomes (HLM). The following applies: 0.50 mg protein/mL, NADPH; for Clint: 1 μM compound; for half-life at 1 μM: both sexes, human, pooled human liver microsomes, pH 7.4, 1 μM compound. The format is in vitro ADME. Here is the method:
(§1) HLM Stability. Pooled HLM from adult male and female donors (Corning 452117) were used. Microsomal incubations were carried out in multi-well plates. Liver microsomal incubation medium consisted of PBS (100 mM, pH 7.4), MgCl2 (1 mM), and NADPH (1 nmM), with 0.50 mg of liver microsomal protein per mL. Control incubations were performed by replacing the NADPH-cofactor system with PBS. Test compounds (1 μM, final solvent concentration 1.0%) were incubated with microsomes at 37° C. with constant shaking, Six time points over 60 minutes were analyzed, with 60 μL aliquots of the reaction mixture being drawn at each time point. The reaction aliquots were stopped by adding 180 μL of cold (4° C.) acetonitrile containing 200 ng/mL tolbutamide and 200 ng/mL labetalol as internal standards (IS), followed by shaking for 10 minutes, and then protein sedimentation by centrifugation at 4,000 rpm for 20 minutes at 4° C. Supernatant samples (80 μL) were diluted with water (240 μL) and analyzed for parent compound remaining using a fit-for-purpose liquid chromatography-tandem mass spectrometry (LC-MS/MS) method.
(§2) Data Analysis. The elimination constant (kel), half-life (t1/2) and intrinsic clearance (Clint) were determined in a plot of […] versus time, using linear regression analysis.

Data set [2] can be described thus: Metabolic stability in mouse liver microsomes (MLM). The data set is classed as in vitro ADME, CD-1 mice. Particulars: male, CD-1, mouse, pooled mouse liver microsomes, pH 7.4, 1 μM compound, 0.50 mg protein/mL, NADPH. The procedure:
as §1, with “MLM” for “HLM”, “from” for “from adult”, “CD-1 mice (XenoTech M1000)” for “and female donors (Corning 452117)”, “mM),” for “nmM),”, “shaking.” for “shaking,”
Data Analysis. The elimination constant (kel), half-life (t1/2) and intrinsic clearance (Clint) were determined in a plot of ln(AUC) versus […], using linear regression analysis.

Data set [3] in a line: Metabolic stability in rat liver microsomes (RLM). The format is in vitro ADME, Sprague Dawley rats. Here is the method:
as §1, with “RLM” for “HLM”, “from” for “from adult”, “Sprague Dawley rats (XenoTech R1000)” for “and female donors (Corning 452117)”, “mM),” for “nmM),”, “shaking.” for “shaking,”
as §2
A general note: Liver microsomes are vesicles of endoplasmic reticulum, rich in cytochrome P450 enzymes.

Data set [4] is described as follows: Comparative metabolism/PK of 2R and deuterated 7R in rats after oral administration. The format is in vivo, Sprague Dawley rats. Particulars: for concentration at 0.083 h / concentration at 0.25 h / concentration at 0.5 h / concentration at 1 h / concentration at 2 h / concentration at 4 h: oral; for concentration at 0.083 h: 0.083 h after 10 mg/kg po of 2R or 7R; for concentration at 0.25 h: 0.25 h after 10 mg/kg po of 2R or 7R; for concentration at 0.5 h: 0.5 h after 10 mg/kg po of 2R or 7R; for concentration at 1 h: 1 h after 10 mg/kg po of 2R or 7R; for concentration at 2 h: 2 h after 10 mg/kg po of 2R or 7R; for concentration at 4 h: 4 h after 10 mg/kg po of 2R or 7R. The procedure: Animals. Male Sprague Dawley rats were used in these studies. Animals were randomly assigned to treatment groups and were fasted for 4 h before dosing.
Drugs. Test compounds 2R and 7R were dissolved in a vehicle consisting of normal saline. They were then administered orally (po) at a dose of 10 mg/kg (calculated based on freebase), and at a volume of 5 mL/kg body weight.
Sample Collection and Bioanalysis. Blood samples (approximately 60 μL) were collected under light isoflurane anesthesia (Surgivet®) from the retro orbital plexus at 0.08, 0.25, 0.5, 1, 2, 4, 8, and 24 h (4 animals per time point). Immediately after blood collection, plasma was harvested by centrifugation at 4,000 rpm for 10 min at 4° C. and samples were stored at −70±10° C. until bioanalysis. Following blood collection, animals were immediately sacrificed, the abdominal vena-cava was cut open, and the whole body was perfused from the heart using 10 mL of normal saline, and brain samples were collected from all animals. After isolation, brain samples were rinsed three times in ice-cold normal saline (for 5-10 seconds/rinse using ˜5-10 mL normal saline in disposable petri dish for each rinse) and dried on blotting paper. Brain samples were homogenized using ice-cold phosphate-buffered saline (pH 7.4) Total homogenate volume was three times the tissue weight. All homogenates were stored at −70±10° C. until bioanalysis. For bioanalysis, 25 μL aliquots of plasma/brain study samples or spiked plasma/brain calibration standards were added to individual pre-labeled micro-centrifuge tubes followed by 100 μL of an internal standard solution (glipizide, 500 ng/mL in acetonitrile) except for blanks, where 100 μL of acetonitrile was added. Samples were vortexed for 5 minutes and then centrifuged for 10 minutes at 4,000 rpm at 4° C. Following centrifugation, 100 μL of each clear supernatant was transferred to a 96 well plate and analyzed with a fit-for-purpose LC-MS/MS method, with authentic samples of each analyte used for calibration and identification. Concentrations of parent compound (2R or 7R) and metabolite 1R were determined in all samples.
Data Analysis. Pharmacokinetic parameters were estimated using the non-compartmental analysis tool of Phoenix® WinNonlin software (Ver 8.0).

Where [5] appears, read: male, Sprague Dawley, rat, pooled rat liver microsomes, pH 7.4, 1 μM compound, 0.50 mg protein/mL, NADPH.
Setting [6] is: male, Sprague Dawley, rat, brain, 10 mg/kg, rat brain, read-out: Mean brain concentration.
The mark [7] stands for this setting: male, Sprague Dawley, rat, plasma, 10 mg/kg, rat plasma, read-out: Mean plasma concentration.
Setting [8] is: rat brain after 10 mg/kg po of 2R or 7R, parent or metabolite 1R as labelled.

Read-outs that look alike come from different tables or passages of the source. Where only a bound is given, the exact number is not on record here.

In general, microsomal CLint refers to the rate of metabolic loss divided by the concentration. A lower microsomal CLint goes with slow turnover. In data set [1], `NC1(c2ccc(F)cc2)CCCCC1=O` (racemic) [Compound 1, 2-amino-2-(4-fluorophenyl)cyclohexan-1-one] came in with a Clint of less than 9.6 μL/min/m and a half-life at 1 μM of more than 2.42 h. Further, in data set [2], the half-life at 1 μM was more than 2.42 h and the intrinsic clearance (microsomal CLint) at 1 μM is less than 9.6 µL/min/mg. Besides, in data set [3], the “metabolic stability in RLM (in words)” value is on record as “much greater stability”. Moreover, in data set [3] (setting [5]), the half-life at 1 μM was more than 2.42 h and the microsomal CLint at 1 μM is less than 9.6 µL/min/mg.

For the compound `CNC1(c2ccc(F)cc2)CCCCC1=O` (racemic) [Compound 2], in data set [1], the Clint is less than 9.6 μL/min/m. The half-life at 1 μM in data set [1] is more than 2.42 h; in data set [2], 1.68 h; in data set [3] (setting [5]) it was 1.18 h. Besides, the “metabolic stability in RLM (in words)” value in data set [3] was “much greater stability”.

On to `NC1(c2cccc(F)c2)CCCCC1=O` (racemic) [Compound 3, 2-amino-2-(3-fluorophenyl)cyclohexan-1-one], for which the “metabolic stability in RLM (in words)” value in data set [3] is listed as “much greater stability”.

The term Cmax denotes the peak of the concentration-time curve. `[2H]C([2H])([2H])N[C@@]1(c2ccc(F)cc2)CCCCC1=O` [Compound 7R]: in data set [4] (setting [6]), the concentration at 0.083 h was 98 ng/g, the concentration at 0.25 h worked out at 2090 ng/g, the concentration at 0.5 h was found to be 2200 ng/g and the concentration at 1 h worked out at 1770 ng/g. In data set [4] (setting [6]), the concentration at 2 h turned out to be 1420 ng/g and the concentration at 4 h amounted to 236 ng/g. The half-life in data set [4] (male, Sprague Dawley, rat, brain, po, 10 mg/kg, rat brain after 10 mg/kg po of 2R or 7R, parent or metabolite 1R as labelled, read-out: t1/2 (brain)) turned out to be 1.12 h. In addition, in data set [4] (setting [7]), the concentration at 0.083 h amounted to 0.065 µg/mL, the concentration at 0.25 h was 0.502 µg/mL, the concentration at 0.5 h was determined as 0.799 µg/mL and the concentration at 1 h was 0.564 µg/mL. Further, in data set [4] (setting [7]), the concentration at 2 h came to 0.396 µg/mL and the concentration at 4 h was 0.068 µg/mL. Besides, the Cmax in data set [4] (male, Sprague Dawley, rat, plasma, po, 10 mg/kg, rat plasma after 10 mg/kg po of 2R or 7R, parent or metabolite 1R as labelled) worked out at 0.799 µg/mL. The AUC(0-t) in data set [4] (male, Sprague Dawley, rat, plasma, po, 10 mg/kg, rat plasma after 10 mg/kg po of 2R or 7R, parent or metabolite 1R as labelled, read-out: AUC0-last (plasma) (converted)) was 1.65 µg·h/mL. Besides, in data set [4] (male, Sprague Dawley, rat, plasma, po, 10 mg/kg, rat plasma after 10 mg/kg po of 2R or 7R, parent or metabolite 1R as labelled, read-out: t1/2 (plasma)), the half-life amounted to 1.08 h. Moreover, in data set [4] (setting [8]), the “AUC0-last (brain)” value amounted to 330347 ng·min/g and the “Cmax (brain)” value amounted to 2197 ng/g. Further, the “exposure (AUC) in plasma and brain compared to non-deuterated 2R” value in data set [4] (rats, 10 mg/kg po) is listed as “greater exposure”.

As to `Cc1ccc(C2(N)CCCCC2=O)cc1` (centres unmarked) [Compound 10, 2-amino-2-(p-tolyl)cyclohexan-1-one], the half-life at 1 μM in data set [3] (setting [5]) was 0.06 h.

In data set [3] (setting [5]), `CNC1(c2ccc(C)cc2)CCCCC1=O` (centres unmarked) [Compound 11, 2-(methylamino)-2-(p-tolyl)cyclohexan-1-one] gave a half-life at 1 μM of 0.055 h.

Compound `Cc1cccc(C2(N)CCCCC2=O)c1` (centres unmarked) [Compound 12, 2-amino-2-(m-tolyl)cyclohexan-1-one] gave a half-life at 1 μM in data set [3] (setting [5]) of 0.12 h.

Source of the values: patent publication US20240300886A1, “ARYLCYCLOHEXYLAMINE DERIVATIVES AND THEIR USE IN THE TREATMENT OF PSYCHIATRIC DISORDERS” (GILGAMESH PHARMACEUTICALS, INC., priority 2021, published 2024).
